Experimental findings from patent publication US6277847A, “Herbicidal isoindolinonyl-and 3,4-dihydroisoquinolonyl-substituted heterocycles” (FMC Corporation, priority 2000, dated 2001) are described below.

Format in all cases: in vivo
In assay [1] the test system is green foxtail (Setaria viridis). In words: post-emergence herbicidal activity, green foxtail. The note with it: 1 Kg/Ha, about fourteen days, read-out: post-emergence herbicidal activity (% control) SETVI. The protocol: (§1) This example sets forth the methods of herbicidal testing conducted on the specific compounds set forth below. Specifically, the compounds referenced below were tested for pre- and post-emergence herbicidal activity using a variety of crops and weeds. The test plants include, but are not limited to, soybean (Glycine max -- var. Winchester), field corn (Zea mays var. Pioneer 3732), wheat (Triticum aestivum var. Lew), morningglory (Ipomea lacunosa or Ipomea hederacea), velvetleaf (Abutilon theophrasti), green foxtail (Setaria viridis), Johnsongrass (Sorghum halepense), blackgrass (Aloepecurus myosuroides), common chickweed (Stellaria media), and common cocklebur (Xanthium strumarium L.).
(§2) In the post-emergence test, seeds of the plant species named above were planted in flats containing the appropriate soil mixture where they were maintained to allow the seeds to germinate. When the plants in these flats reached the proper stage of growth, flats for the pre-emergence tests were planted in a like manner. The flats containing the post-emergence and pre-emergence test plant species were then sprayed with an appropriately concentrated water/acetone solution of test compound. Once treated the flats were maintained, along with untreated controls, for about fourteen days. All treated plants were then examined for phytotoxicity, which was expressed as percent control where 0 is no effect and 100 is complete control. Effective rates of application for the compounds of the present invention range from 0.001 to 3 kg/ha, more likely from […] to 1 Kg/ha.
(§3) Herbicidal activity data at selected application rates are in Tables 4 and 5. The test compounds are identified by numbers correspond to those in Table 1.
(§4) SOY is soybean, WHT is wheat, CRN is corn, ABUTH is velvetleaf, IPOSS is
(§5) morningglory, STEME is chickweed, XANPE is cocklebur, ALOMY is blackgrass,
(§6) Rate of application of test compound is 1 Kg/Ha. The definitions as shown under Table 4 apply to Table 5.

Assay [2] has as its system blackgrass (Aloepecurus myosuroides). The assay can be described thus: pre-emergence herbicidal activity, blackgrass. The note with it: Alopecurus myosuroides, 1 kg/Ha, about fourteen days, read-out: pre-emergence herbicidal activity (% control) ALOMY. On the procedure: as §1, §2, §3
(§7) Rate of application of test compound is 1 kg/Ha
as §4
(§8) morningglory, STEME is chickweed, XANPE is cocklebur, ALOMY is blackgrass, […]

Assay [3] deals with green foxtail (Setaria viridis). In words: pre-emergence herbicidal activity, green foxtail. The note with it: 1 kg/Ha, about fourteen days, read-out: pre-emergence herbicidal activity (% control) SETVI. The protocol: as §1, §2, §3, §7, §4, §8
Assay [4] concerns velvetleaf (Abutilon theophrasti). In words: pre-emergence herbicidal activity, velvetleaf. The note with it: 1 kg/Ha, about fourteen days, read-out: pre-emergence herbicidal activity (% control) ABUTH. On the procedure: as §1, §2, §3, §7, §4, §8
In assay [5] the test system is wheat (Triticum aestivum var. Lew). The assay can be described thus: post-emergence herbicidal activity, wheat. The note with it: 1 Kg/Ha, about fourteen days, read-out: post-emergence herbicidal activity (% control) WHT. The protocol:
as §1, §2, §3, §4, §5, §6

Assay [6] has as its system common chickweed (Stellaria media). In words: pre-emergence herbicidal activity, chickweed. The note with it: 1 kg/Ha, about fourteen days, read-out: pre-emergence herbicidal activity (% control) STEME. On the procedure: as §1, §2, §3, §7, §4, §8
In assay [7] the test system is morningglory (Ipomea lacunosa or Ipomea hederacea). The assay can be described thus: pre-emergence herbicidal activity, morningglory. The note with it: Ipomoea, 1 kg/Ha, about fourteen days, read-out: pre-emergence herbicidal activity (% control) IPOSS. On the procedure: as §1, §2, §3, §7, §4, §8
The test system of assay [8] is Johnsongrass (Sorghum halepense). In words: post-emergence herbicidal activity, johnsongrass. The note with it: 1 Kg/Ha, about fourteen days, read-out: post-emergence herbicidal activity (% control) SORHA. The protocol: as §1, §2, §3, §4, §5, §6
Assay [9] relates to velvetleaf (Abutilon theophrasti). The assay can be described thus: post-emergence herbicidal activity, velvetleaf. The note with it: 1 Kg/Ha, about fourteen days, read-out: post-emergence herbicidal activity (% control) ABUTH. On the procedure:
as §1, §2, §3, §4, §5, §6

Assay [10] deals with field corn (Zea mays var. Pioneer 3732). The assay can be described thus: post-emergence herbicidal activity, corn. The note with it: 1 Kg/Ha, about fourteen days, read-out: post-emergence herbicidal activity (% control) CRN. The protocol: as §1, §2, §3, §4, §5, §6
The subject of assay [11] is wheat (Triticum aestivum var. Lew). The assay can be described thus: pre-emergence herbicidal activity, wheat. The note with it: 1 kg/Ha, about fourteen days, read-out: pre-emergence herbicidal activity (% control) WHT. On the procedure: as §1, §2, §3, §7, §4, §8
The test system of assay [12] is soybean (Glycine max -- var. Winchester). In words: pre-emergence herbicidal activity, soybean. The note with it: 1 kg/Ha, about fourteen days, read-out: pre-emergence herbicidal activity (% control) SOY. On the procedure: as §1, §2, §3, §7, §4, §8
Assay [13] deals with common cocklebur (Xanthium strumarium L.). In words: post-emergence herbicidal activity, cocklebur. The note with it: 1 Kg/Ha, about fourteen days, read-out: post-emergence herbicidal activity (% control) XANPE. The protocol:
as §1, §2, §3, §4, §5, §6

For assay [14], the system named is soybean (Glycine max -- var. Winchester). In words: post-emergence herbicidal activity, soybean. The note with it: 1 Kg/Ha, about fourteen days, read-out: post-emergence herbicidal activity (% control) SOY. The protocol: as §1, §2, §3, §4, §5, §6
In assay [15] the test system is morningglory (Ipomea lacunosa or Ipomea hederacea). The assay can be described thus: post-emergence herbicidal activity, morningglory. The note with it: Ipomoea, 1 Kg/Ha, about fourteen days, read-out: post-emergence herbicidal activity (% control) IPOSS. The protocol:
as §1, §2, §3, §4, §5, §6

The test system of assay [16] is common cocklebur (Xanthium strumarium L.). The assay can be described thus: pre-emergence herbicidal activity, cocklebur. The note with it: 1 kg/Ha, about fourteen days, read-out: pre-emergence herbicidal activity (% control) XANPE. The protocol:
as §1, §2, §3, §7, §4, §8

In assay [17] the test system is field corn (Zea mays var. Pioneer 3732). In words: pre-emergence herbicidal activity, corn. The note with it: 1 kg/Ha, about fourteen days, read-out: pre-emergence herbicidal activity (% control) CRN. The protocol: as §1, §2, §3, §7, §4, §8
For assay [18], the system named is Johnsongrass (Sorghum halepense). In words: pre-emergence herbicidal activity, johnsongrass. The note with it: 1 kg/Ha, about fourteen days, read-out: pre-emergence herbicidal activity (% control) SORHA. The protocol:
as §1, §2, §3, §7, §4, §8

For `CCOC(=O)CN1Cc2c(-n3c(=O)cc(C(F)(F)F)n(C)c3=O)ccc(Cl)c2C1=O` [Compound 7], the activity at 1000 g/ha in assay [1] was found to be 60%; in assay [2], 40%; in assay [3], 70%; in [4] it was 100%; in assay [5] it was 20%; in [6], 60%. The activity at 1000 g/ha in assay [7] worked out at 80%; in [8] it was 40%; in assay [9], 80%; in assay [10] it was 40%; in assay [11] it was 30%; in assay [12], 70%. Moreover, the activity at 1000 g/ha in assay [13] is 60%; in assay [14], 60%; in [15] it was 40%; in assay [16] it was 50%; in assay [17], 70%; in assay [18], 55%.
On to `C#CCN1Cc2c(-n3c(=O)cc(C(F)(F)F)n(C)c3=O)ccc(Cl)c2C1=O` [Compound 8], for which the activity at 1000 g/ha in assay [1], in assay [2], in assay [3], in [4], in assay [5] and in [6] was 100% each time. Besides, the activity at 1000 g/ha in [7], in [8], in assay [9], in assay [10], in [11] and in assay [12] was 100% each time. In addition, the activity at 1000 g/ha in [13], in assay [14], in [15], in assay [16], in assay [17] and in [18] was 100% throughout.
Take `CN1Cc2c(-n3c(=O)cc(C(F)(F)F)n(C)c3=O)ccc(Cl)c2C1=O` [Compound 9]: the activity at 1000 g/ha in assay [1] was 70%; in assay [2], 100%; in assay [3], 100%; in [4], 100%; in [5], 50%; in assay [6], 100%. For the same compound, the activity at 1000 g/ha is 100% in assay [7]; 50% in [8]; 100% in assay [9]; 50% in [10]; 100% in assay [11]; 100% in assay [12]. In addition, the activity at 1000 g/ha in assay [13] came out at 70%; in assay [14], 100%; in [15], 90%; in assay [16], 100%; in assay [17] it was 100%; in [18], 100%.
Take `Cn1c(C(F)(F)F)cc(=O)n(-c2ccc(Cl)c3c2CN(Cc2ccccc2)C3=O)c1=O` [Compound 10]: the activity at 1000 g/ha amounted to 60% in assay [1]; 80% in [2]; 100% in assay [3]; 100% in assay [4]; 40% in assay [5]; 100% in assay [6]. In addition, the activity at 1000 g/ha turned out to be 80% in assay [7]; 40% in assay [8]; 100% in [9]; 60% in [10]; 70% in assay [11]; 80% in [12]. Besides, the activity at 1000 g/ha in assay [13] came out at 50%; in assay [14], 65%; in assay [15], 40%; in assay [16], 80%; in assay [17], 90%; in assay [18] it was 100%.
As for `CCCCN1Cc2c(-n3c(=O)cc(C(F)(F)F)n(C)c3=O)ccc(Cl)c2C1=O` [Compound 11], the activity at 1000 g/ha in assay [1], in assay [2], in [3], in [4], in assay [5] and in assay [6] was 100% each time. Also, the activity at 1000 g/ha was determined as 100% in assay [7]; 90% in assay [8]; 100% in assay [9]; 80% in [10]; 100% in [11]; 100% in assay [12]. The activity at 1000 g/ha in assay [13] came out at 100%; in [14], 95%; in [15] it was 95%; in [16] it was 100%; in [17], 100%; in assay [18], 100%.
In the case of `C=CCON1Cc2c(-n3c(=O)cc(C(F)(F)F)n(C)c3=O)ccc(Cl)c2C1=O` [Compound 17], the activity at 1000 g/ha in assay [1], in [3], in assay [4], in assay [5], in assay [6] and in [7] was 100% each time. Moreover, the activity at 1000 g/ha in assay [8] amounted to 100%; in assay [9], 100%; in assay [10], 90%; in [11], 100%; in assay [12], 100%; in assay [13], 100%. Further, the activity at 1000 g/ha amounted to 100% in [14]; 90% in assay [15]; 100% in assay [16]; 100% in assay [17]; 100% in assay [18].
Consider `Cn1c(C(F)(F)F)cc(=O)n(-c2ccc(Cl)c3c2CN(O)C3=O)c1=O` [Compound 18], for which the activity at 1000 g/ha in assay [1] was 70%; in assay [3], 100%; in assay [4], 100%; in assay [5], 50%; in assay [7], 100%; in [8], 65%. In addition, the activity at 1000 g/ha came to 100% in assay [9]; 70% in [10]; 60% in assay [11]; 95% in assay [12]; 95% in assay [13]; 80% in [14]. Moreover, the activity at 1000 g/ha in assay [15], in assay [16], in assay [17] and in assay [18] was 100% each time.
